Results: US5922691A, “Crystalline maltotetraosyl glucoside, and its production and use” (Kabushiki Kaisha Hayashibara Seibutsu Kagaku Kenkyujo, priority 1994, dated 1999)
In brackets after ≈: the same amount, converted by molar mass.

Assays:
[1] = Hygroscopicity when allowed to stand in a room; assay type: physicochemical; settings: for Hygroscopicity: allowed to stand in a room
Method: Fifty parts by weight of 98% maltopentaose, a product commercialized by Hayashibara Biochemical Laboratories, Inc., Okayama, Japan, was dissolved in 200 parts by weight of water while heating and the resultant solution was heated to 40° C. and adjusted to pH 7.0, admixed with a non-reducing saccharide-forming enzyme prepared by the method in Experiment A-2 in an amount of 5 units/g maltopentaose, reacted for 24 hours and followed by heating at 100° C. for 20 minutes to inactivate the enzyme. The resultant solution contained about 90% maltotetraosyl glucoside, and the remains are maltopentaose. The solution was adjusted to 0.1N by adding sodium hydroxide, and heated at 100° C. for 2 hours to decompose reducing saccharides. The solution was decolored with activated carbon and desalted with ion-exchange resins (H^+ and OH^- form) to obtain 98% maltotetraosyl glucoside fraction. The fractions were pooled and the solution was concentrated to give a concentration of 60%, placed in a crystallizer and admixed with a crystalline maltotetraosyl glucoside in an amount of 2% as a seed crystal, and the resultant mixture is cooled gradually while stirring for crystallization to form a massecuit. The massecuit thus obtained was separated from molasses to obtain 99.9% hydrous crystalline maltotetraosyl glucoside in the yield against starting material of about 50%.
The anhydrous crystalline maltotetraosyl glucoside can be favorably used as hygroscopic agent, dehydrating agent and chemical raw material, and further utilizable in a variety of compositions including foods, beverages, cosmetics, pharmaceuticals and shaped bodies, similar to hydrous crystalline maltotetraosyl glucoside in Example A-1.

[2] = Reducing power by the Somogyi-Nelson method, represented by DE; assay type: physicochemical; settings: high-purity lyophilized saccharide preparations
Method: These high-purity saccharide preparations were tested for reducing power with the Somogyi-Nelson method and their reducing powers were represented by DE (dextrose equivalent).

Solubility in water = assay type: physicochemical; settings: in 100 ml of 25° C. water; read-out: Solubility (as anhydride)
Method: (8) Solubility (as anhydride)
Up to about 1 g each hydrous or anhydrous crystal was soluble in 100 ml of 25° C. water.

[3] = Acute toxicity in mice upon oral administration; assay type: in vivo; settings: mouse, in vivo, oral administration
Method: (§1) Hydrous and anhydrous crystalline maltotetraosyl glucosides prepared by the method in Experiment B-1 were tested for acute toxicity in mice upon oral administration.

mice = assay: Acute toxicity in mice upon oral administration; assay type: in vivo; settings: oral, maximum administrable doses
Method: as §1

| Structure (SMILES) | Hygroscopicity [1] | DE (dextrose equivalent), reducing power [2] | further results |
| --- | --- | --- | --- |
| OC[C@H]1O[C@H](O[C@H]2O[C@H](CO)[C@@H](O[C@H]3O[C@H](CO)[C@@H](O[C@H]4O[C@H](CO)[C@@H](O[C@H]5O[C@H](CO)[C@@H](O)[C@H](O)[C@H]5O)[C@H](O)[C@H]4O)[C@H](O)[C@H]3O)[C@H](O)[C@H]2O)[C@H](O)[C@@H](O)[C@@H]1O [Example A-1, maltotetraosyl glucoside] | no hygroscopicity |  |  |
| OC[C@H]1O[C@H](O[C@H]2O[C@H](CO)[C@@H](O[C@H]3O[C@H](CO)[C@@H](O[C@H]4O[C@H](CO)[C@@H](O[C@H]5O[C@H](CO)[C@@H](O)[C@H](O)[C@H]5O)[C@H](O)[C@H]4O)[C@H](O)[C@H]3O)[C@H](O)[C@H]2O)[C@H](O)[C@@H](O)[C@@H]1O [Example A-2, maltotetraosyl glucoside] | substantially no hygroscopicity |  |  |
| OC[C@H]1O[C@H](O[C@H]2O[C@H](CO)[C@@H](O[C@H]3O[C@H](CO)[C@@H](O[C@H]4O[C@H](CO)[C@@H](O[C@H]5O[C@H](CO)[C@@H](O)[C@H](O)[C@H]5O)[C@H](O)[C@H]4O)[C@H](O)[C@H]3O)[C@H](O)[C@H]2O)[C@H](O)[C@@H](O)[C@@H]1O [Example A-3, maltotetraosyl glucoside] | substantially no hygroscopicity |  |  |
| OC[C@H]1O[C@H](O[C@H]2O[C@H](CO)[C@@H](O[C@H]3O[C@H](CO)[C@@H](O[C@H]4O[C@H](CO)[C@@H](O[C@H]5O[C@H](CO)[C@@H](O)[C@H](O)[C@H]5O)[C@H](O)[C@H]4O)[C@H](O)[C@H]3O)[C@H](O)[C@H]2O)[C@H](O)[C@@H](O)[C@@H]1O [Example A-4, maltotetraosyl glucoside] | exhibited hygroscopicity |  | Water content after standing in a room ([1]; after conversion into hydrous crystal): about 4% |
| OC[C@H]1O[C@H](O[C@H]2O[C@H](CO)[C@@H](O[C@H]3O[C@H](CO)[C@@H](O[C@H]4O[C@H](CO)[C@@H](O[C@H]5O[C@H](CO)[C@@H](O)[C@H](O)[C@H]5O)[C@H](O)[C@H]4O)[C@H](O)[C@H]3O)[C@H](O)[C@H]2O)[C@H](O)[C@@H](O)[C@@H]1O [Example A-5, maltotetraosyl glucoside] | substantially no hygroscopicity |  |  |
| OC[C@H]1O[C@H](O[C@H]2O[C@H](CO)[C@@H](O[C@H]3O[C@H](CO)[C@@H](O)[C@H](O)[C@H]3O)[C@H](O)[C@H]2O)[C@H](O)[C@@H](O)[C@@H]1O [PI, α-glucosyl trehalose (or α-maltosyl glucoside)] |  | 0.83 |  |
| OC[C@H]1O[C@H](O[C@H]2O[C@H](CO)[C@@H](O[C@H]3O[C@H](CO)[C@@H](O[C@H]4O[C@H](CO)[C@@H](O)[C@H](O)[C@H]4O)[C@H](O)[C@H]3O)[C@H](O)[C@H]2O)[C@H](O)[C@@H](O)[C@@H]1O [PII, α-maltosyl trehalose (or α-maltotriosyl glucoside)] |  | 0.35 |  |
| OC[C@H]1O[C@H](O[C@H]2O[C@H](CO)[C@@H](O[C@H]3O[C@H](CO)[C@@H](O[C@H]4O[C@H](CO)[C@@H](O[C@H]5O[C@H](CO)[C@@H](O)[C@H](O)[C@H]5O)[C@H](O)[C@H]4O)[C@H](O)[C@H]3O)[C@H](O)[C@H]2O)[C@H](O)[C@@H](O)[C@@H]1O [PIII, α-maltotriosyl trehalose (or α-maltotetraosyl glucoside)] |  | 0.10 |  |
| OC[C@H]1O[C@H](O[C@H]2O[C@H](CO)[C@@H](O[C@H]3O[C@H](CO)[C@@H](O[C@H]4O[C@H](CO)[C@@H](O[C@H]5O[C@H](CO)[C@@H](O[C@H]6O[C@H](CO)[C@@H](O)[C@H](O)[C@H]6O)[C@H](O)[C@H]5O)[C@H](O)[C@H]4O)[C@H](O)[C@H]3O)[C@H](O)[C@H]2O)[C@H](O)[C@@H](O)[C@@H]1O [PIV, α-maltotetraosyl trehalose (or α-maltopentaosyl glucoside)] |  | 0.27 |  |
| OC[C@H]1O[C@H](O[C@H]2O[C@H](CO)[C@@H](O[C@H]3O[C@H](CO)[C@@H](O[C@H]4O[C@H](CO)[C@@H](O[C@H]5O[C@H](CO)[C@@H](O[C@H]6O[C@H](CO)[C@@H](O[C@H]7O[C@H](CO)[C@@H](O)[C@H](O)[C@H]7O)[C@H](O)[C@H]6O)[C@H](O)[C@H]5O)[C@H](O)[C@H]4O)[C@H](O)[C@H]3O)[C@H](O)[C@H]2O)[C@H](O)[C@@H](O)[C@@H]1O [PV, α-maltopentaosyl trehalose (or α-maltohexaosyl glucoside)] |  | 0.23 |  |
| OC[C@H]1O[C@H](O[C@H]2O[C@H](CO)[C@@H](O[C@H]3O[C@H](CO)[C@@H](O[C@H]4O[C@H](CO)[C@@H](O[C@H]5O[C@H](CO)[C@@H](O)[C@H](O)[C@H]5O)[C@H](O)[C@H]4O)[C@H](O)[C@H]3O)[C@H](O)[C@H]2O)[C@H](O)[C@@H](O)[C@@H]1O [hydrous crystal, O-α-D-glucopyranosyl-(1→4)-O-α-D-glucopyranosyl-(1→4)-O-α-D-glucopyranosyl-(1→4)-α-D-glucopyranosyl α-D-glucopyranoside] |  |  | solubility (Solubility in water): ~10000 µg/mL (≈ 12.1 mM); LD50 [3]: ≥ 50000 mg/kg; Mortality (mice): no mouse was died |
